Assay results taken from publication PMC6278664, “Highly Cancer Selective Antiproliferative Activity of Natural Prenylated Flavonoids” (Molecules, 2018).
Read-outs that look alike come from different tables or passages of the source.

Experiments:
Format in all cases: cell-based
[1] = tested on: MCF7 human breast cancer cell line; assay: SRB antiproliferative assay, MCF7; conditions: for IC50: SRB, 72 h, mean ± SD; for Selectivity index SIA, MCF-7: IC50 HLMEC / IC50 MCF-7; for Selectivity index SIB, MCF-7: IC50 MCF-10A / IC50 MCF-7
Description: (§1) We determined the effect of various structural factors in the substrates on the antiproliferative activity against those selected to the study cell lines: the location and/or the presence of the prenyl group, the chalcone/flavanone skeleton and the presence of an O-methyl group at C-5 in flavanones. Flavonoids presented in Figure 1 were tested for the antiproliferative activity towards eight cancer cell lines including estrogen-dependent (MCF7 and T-47D) and two normal ones (HLMEC and MCF 10A). The in vitro antiproliferative activity was measured using SRB assay. The results are presented in Figure 2 (and in the supplement in Table S1). The antiproliferative activity was measured separately for each of the experiments and given as the average IC50 (the concentration of tested compound which inhibits 50% of the cells population). Cisplatin (CP), a common anticancer drug, was used as a positive control.
(§2) The following established in vitro cell lines were applied: MCF7, T-47D, MDA-MB-231 (human breast cancer cell line), A2780 (human ovarian cancer cell line), A2780cis (human cisplatin-resistant ovarian cancer cell line), PC-3 and DU 145 (human prostate cancer cell lines), HT-29 (human colon cancer cell line), HLMEC (human lung microvascular endothelial cell line), and MCF 10A (human mammary epithelial cells line).
(§3) The cell lines: MDA-MB-231, HT-29, PC-3, DU 145, and MCF 10A were obtained from the American Type Culture Collection (Rockville, MD, USA), MCF7, T-47D, A2780, A2780cis from the European Collection Cell Cultures (Sigma-Aldrich, Chemie GmbH, Steinheim, Germany), while the HLMEC cell line was obtained by M. Paprocka from the institute. All cell lines are being maintained in the Institute of Immunology and Experimental Therapy (Wrocław, Poland). DU 145 and MCF7 cells were cultured in Eagle medium (supplemented with 4mM L-glutamine, 10% fetal bovine serum, 1 mM sodium pyruvate for DU 145 cells or 2 mM L-glutamine, 1% mem non-essential amino acid solution and 8 µg/mL insulin and 10% fetal bovine serum for MCF7). […] HT-29 and T-47D cell lines were cultured in RPMI 1640 + OPTI-MEM medium supplemented with 2 mM L-glutamine, 5% fetal bovine serum and 8 µg/mL of insulin (T-47D) or 1 mM sodium pyruvate (HT-29). MDA-MB-231, PC-3 and HLMEC cell lines were cultured in RPMI 1640 medium supplemented with 2 mM L-glutamine and 10% fetal bovine serum. Medium for MCF 10A cell line consisted of F-12 nutrient mixture supplemented with cholera toxin (0.05 µg/mL), insulin (10 µg/mL), hydrocortisone (0.5 µg/mL), 5% horse serum, and EGFH (20 ng/mL). All the culture media contained antibiotics: 100 units/mL penicillin (Polfa Tarchomin SA, Warsaw, Poland), and 100 µg/mL streptomycin (Sigma-Aldrich, Chemie GmbH, Steinheim, Germany). All cell lines were grown at 37 °C with 5% CO2 humidified atmosphere.
(§4) Twenty-four hours before the incubation with the tested compounds, the cells were seeded in 96-plates (Sarstedt, Germany) at a density of 1 × 10^4 cells per well (0.75 × 10^4 per well for MCF7 and 1 × 10^3 per well for HLMEC) in 100 µL of a culture medium.
(§5) Each agent at each concentration (from 0.1 to 100 µg/mL) was tested in a single experiment, which was repeated four to five times. […] Cisplatin was used as a reference drug.
(§6) The results were calculated as the IC50 (inhibitory concentration 50%)—the concentration of the tested compound which inhibits 50% of the cells population. IC50 values were calculated for each experiment separately and mean values ± SD are presented in the Table S1 in the Supplementary Materials. Each compound at each concentration was tested in triplicate in a single experiment, which was repeated four to five times.
(§7) The cells were fixed in situ by gently adding cold 50% trichloroacetic acid (50 µL per well). The plates were incubated at 4 °C for 1h and then washed five times with tap water. […]

[2] = tested on: T-47D human breast cancer cell line; assay: SRB antiproliferative assay, T-47D; conditions: for IC50: SRB, 72 h, mean ± SD; for Selectivity index SIA, T-47D: IC50 HLMEC / IC50 T-47D; for Selectivity index SIB, T-47D: IC50 MCF-10A / IC50 T-47D
Description: as §1, §2, §3, §4, §5, §6, §7

[3] = tested on: MDA-MB-231 human breast cancer cell line; assay: SRB antiproliferative assay, MDA-MB-231; conditions: for IC50: SRB, 72 h, mean ± SD; for Selectivity index SIA, MDA-MB-231: IC50 HLMEC / IC50 MDA-MB-231; for Selectivity index SIB, MDA-MB-231: IC50 MCF-10A / IC50 MDA-MB-231
Description: as §1, §2, §3, §4, §5, §6, §7

[4] = tested on: HT-29 human colon cancer cell line; assay: SRB antiproliferative assay, HT-29; conditions: for IC50: SRB, 72 h, mean ± SD; for Selectivity index SIA, HT-29: IC50 HLMEC / IC50 HT-29; for Selectivity index SIB, HT-29: IC50 MCF-10A / IC50 HT-29
[5] = tested on: A2780 human ovarian cancer cell line; assay: SRB antiproliferative assay, A2780; conditions: for IC50: SRB, 72 h, mean ± SD, read-out: Cancer cell line, IC50, A-2780; for Selectivity index SIA, A-2780: IC50 HLMEC / IC50 A-2780; for Selectivity index SIB, A-2780: IC50 MCF-10A / IC50 A-2780
Description: as §1, §2, §3, §4, §5, §6, §7

[6] = tested on: A2780cis human cisplatin-resistant ovarian cancer cell line; assay: SRB antiproliferative assay, A2780cis; conditions: for IC50: SRB, 72 h, mean ± SD, read-out: Cancer cell line, IC50, A-2780cis; for Selectivity index SIA, A-2780cis: IC50 HLMEC / IC50 A-2780cis; for Selectivity index SIB, A-2780cis: IC50 MCF-10A / IC50 A-2780cis
Description: as §1, §2, §3, §4, §5, §6, §7

[7] = tested on: PC-3 human prostate cancer cell line; assay: SRB antiproliferative assay, PC-3; conditions: for IC50: SRB, 72 h, mean ± SD; for Selectivity index SIA, PC-3: IC50 HLMEC / IC50 PC-3; for Selectivity index SIB, PC-3: IC50 MCF-10A / IC50 PC-3
Description: as §1, §2, §3, §4, §5, §6, §7

[8] = tested on: DU 145 human prostate cancer cell line; assay: SRB antiproliferative assay, DU 145; conditions: for IC50: SRB, 72 h, mean ± SD; for Selectivity index SIA, Du-145: IC50 HLMEC / IC50 Du-145; for Selectivity index SIB, Du-145: IC50 MCF-10A / IC50 Du-145
Description: as §1, §2, §3, §4, §5, §6, §7

[9] = tested on: HLMEC human lung microvascular endothelial cell line; assay: SRB antiproliferative assay, HLMEC (normal); conditions: 72 h, mean ± SD
[10] = tested on: MCF 10A human mammary epithelial cells line; assay: SRB antiproliferative assay, MCF 10A (normal); conditions: 72 h, mean ± SD, read-out: Normal cell line, IC50, MCF-10A
Description: as §1, §2, §3, §4, §5, §6, §7

Structure (SMILES)	IC50 ([1]; Homo sapiens, MCF7, 72 h)	Selectivity index SIA, MCF-7 [1]	Selectivity index SIB, MCF-7 [1]	IC50 ([2]; Homo sapiens, T47D)	Selectivity index SIA, T-47D [2]	Selectivity index SIB, T-47D [2]	IC50 ([3]; Homo sapiens, MDA-MB-231)	Selectivity index SIA, MDA-MB-231 [3]	Selectivity index SIB, MDA-MB-231 [3]	IC50 ([4]; Homo sapiens, HT-29)	Selectivity index SIA, HT-29 [4]	Selectivity index SIB, HT-29 [4]	IC50 ([5]; Homo sapiens, A2780)	Selectivity index SIA, A-2780 [5]	Selectivity index SIB, A-2780 [5]	IC50 ([6]; Homo sapiens, A2780cis)	Selectivity index SIA, A-2780cis [6]	Selectivity index SIB, A-2780cis [6]	IC50 ([7]; Homo sapiens)	Selectivity index SIA, PC-3 [7]	further results
COc1cc(O)c(CC=C(C)C)c(O)c1C(=O)CCc1ccc(O)cc1 [2HXN, 3′-(3,3-dimethylallyl)-4,2′,4′-trihydroxy-6′-methoxy-α,β-dihydrochalcone]	10.1 ± 2.31 µM	1.41	7.15	7.27 ± 3.05 µM	1.95	9.91	10 ± 3.26 µM	1.41	7.19	12.2 ± 2.99 µM	1.16	5.89	1.8 ± 0.64 µM	7.87	40.03	11.6 ± 3.36 µM	1.22	6.22	16.3 ± 5.22 µM	0.87	SIA against A2780, times higher than the reference ([5]; ratio of SIA to SIA of cisplatin): 5-8 times; Selectivity index SIB, PC-3 [7]: 4.43; IC50 ([8]; Homo sapiens, DU-145): 13 ± 4.2 µM; Selectivity index SIA, Du-145 [8]: 1.09; Selectivity index SIB, Du-145 [8]: 5.56; IC50 ([9]; Homo sapiens, Endothelial cell): 14.2 ± 4.24 µM; IC50 ([10]; Homo sapiens, MCF-10A): 72 ± 8.55 µM
O=C1C[C@@H](c2ccc(O)cc2)Oc2cc(O)cc(O)c21 [NG, Naringenin, reference compound]	131 ± 6.11 µM	0.90	1.43	105 ± 48.3 µM	1.12	1.79	166 ± 82.4 µM	0.71	1.13	131 ± 28.2 µM	0.90	1.43	100 ± 4.77 µM	1.17	1.87	109 ± 17 µM	1.07	1.71	171 ± 28.8 µM	0.68	IC50 [1]: 187 ± 72.4 µM; Selectivity index SIB, PC-3 [7]: 1.09; IC50 ([8]; Homo sapiens, DU-145): 134 ± 12.9 µM; Selectivity index SIA, Du-145 [8]: 0.88; Selectivity index SIB, Du-145 [8]: 1.40; IC50 ([9]; Homo sapiens, Endothelial cell): 117 ± 32.3 µM; IC50 ([10]; Homo sapiens, MCF-10A): 187 ± 72.4 µM
CC(C)=CCc1c(O)cc2c(c1O)C(=O)CC(c1ccc(O)cc1)O2 (stereo not drawn) [6PN, 6-(3,3-dimethylallyl)-5,7,4′-trihydroxyflavanone]	43.2 ± 4.37 µM	0.32	2.54	16 ± 3.74 µM	0.86	6.87	62.6 ± 19.5 µM	0.22	1.76	64.6 ± 17.1 µM	0.21	1.70	44.2 ± 14.7 µM	0.31	2.49	81.7 ± 17.7 µM	0.17	1.35	75.5 ± 29.8 µM	0.18	Selectivity index SIB, PC-3 [7]: 1.46; IC50 ([8]; Homo sapiens, DU-145): 79.6 ± 8.89 µM; Selectivity index SIA, Du-145 [8]: 0.17; Selectivity index SIB, Du-145 [8]: 1.38; IC50 ([9]; Homo sapiens, Endothelial cell): 13.7 ± 5.16 µM; IC50 ([10]; Homo sapiens, MCF-10A): 110 ± 33 µM
N.N.[Cl][Pt][Cl] [Cisplatin (CP), Cisplatin, reference compound]	–	–	–	–	–	–	–	–	–	–	–	–	–	–	–	–	–	–	–	–	IC50 [1]: 6.29 ± 1.05 µM; IC50 [2]: 22.2 ± 7.32 µM; IC50 [3]: 16.9 ± 5.45 µM; IC50 [4]: 9.56 ± 3.75 µM; IC50 [5]: 0.97 ± 0.46 µM; IC50 [6]: 12.1 ± 1.27 µM; IC50 [7]: 11.4 ± 2.23 µM; IC50 [8]: 2.73 ± 1.32 µM; IC50 [9]: 0.93 ± 0.28 µM; IC50 [10]: 13.6 ± 4.93 µM
